This is an account of results in patent US10077288B2, “Hydroxystatin derivatives for the treatment of arthrosis” (Merck Patent GmbH, priority 2012, dated 2018).

For test [1], the system named is bovine explants (cartilage degradation, liberation of GAG). The following applies: pH 5.5, explant cultures (for example from mouse, cow or human); background statement; cited from earlier work.
Test [2] concerns rat knee joint inflammation (CAR-induced). Briefly: Anti-hyperalgesic effect in animals: carrageenan-induced knee joint inflammation, Hargreaves test and swelling. It counts as in vivo. The following applies: intra-articular administration 30 minutes before CAR; for CAR-induced swelling: rat knee joint. As for the experimental part: EXAMPLE 6: INVESTIGATION OF THE ANTI-HYPERALGESIC EFFECT IN ANIMALS
In order to induce an inflammation reaction, a carrageenan solution […]) was injected intra-articularly on one side into a rat knee joint. The uninjected side was used for control purposes. Six animals per group were used. The […] was determined by means of a micrometer screw (medial-lateral on the knee joint), and the thermal hyperalgesia was determined by means of a directed infrared light source by the Hargreaves method (Hargreaves et al., 1988) on the sole of the foot. Since the site of inflammation (knee joint) is different from the site of measurement (paw sole), use is made here of the term secondary thermal hyperalgesia, the mechanism of which is of importance for the discovery of effective analgesics.
Experimental description of thermal hyperalgesia (Hargreaves test): the experimental animal is placed in a plastic chamber on a quartz sheet. Before testing, the experimental animal is firstly given about 5-15 minutes time to familiarise itself with the environment. As soon as the experimental animal no longer moves so frequently after the familiarisation phase (end of the exploration phase), the infrared light source, whose focus is in the plane of the glass bottom, is positioned directly beneath the rear paw to be stimulated. An experiment run is then started by pressing the button: infrared light results in an increase in the skin temperature of the rear paw. The experiment is terminated either by the experimental animal raising the rear paw (as an expression of the pain threshold being reached) or by automatic switching-off of the infrared light source when a prespecified maximum temperature has been reached. Light reflected by the paw is recorded as long as the experimental animal sits still. Withdrawal of the paw interrupts this reflection, after which the infrared light source is switched off and the time from switching on to switching off is recorded. […]

Test [3] has as its target T1, cathepsin D isolated from the human liver (Homo sapiens, UniProt P07339).
T1 construct: cathepsin D isolated from the human liver (Sigma-Aldrich); purchased Sigma-Aldrich; host or cells: human liver (tissue-derived, not recombinant)
Briefly: In-vitro fluorescence assay for identification of cathepsin D inhibitors. Type of test: biochemical. The following applies: human liver cathepsin D 1.4 nM, pH 5.5; read-out: CatD assay IC50-(M). Summed up:
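Continuous FRET assay: human liver cathepsin D (1.4 nM final) preincubated 10 min at room temperature with serially diluted compound in 100 mM sodium acetate, 1.25% DMSO, 0.25% Chaps, pH 5.5. Started with 5 μM MCA-GKPILFFRLK(Dnp)d-R-NH2; fluorescence increase (ex 340/em 450 nm) over 60 min at room temperature compared with no-compound control.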

The IC50 is the concentration at which inhibition is half-maximal.

Where a SMILES comes first, the peptide text is derived from it. [ ]: non-standard residue; d: D form. The star is where a group is joined. Sta = CC(C)C[C@H](N)[C@@H](O)CC(=O)O; Isovaleryl = CC(C)CC(=O)*

T1 sequence (P07339 65-161 limits assumed): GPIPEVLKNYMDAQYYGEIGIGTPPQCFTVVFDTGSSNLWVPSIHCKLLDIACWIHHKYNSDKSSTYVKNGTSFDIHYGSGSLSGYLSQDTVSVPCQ
T1 sequence (P07339 169-412 limits assumed): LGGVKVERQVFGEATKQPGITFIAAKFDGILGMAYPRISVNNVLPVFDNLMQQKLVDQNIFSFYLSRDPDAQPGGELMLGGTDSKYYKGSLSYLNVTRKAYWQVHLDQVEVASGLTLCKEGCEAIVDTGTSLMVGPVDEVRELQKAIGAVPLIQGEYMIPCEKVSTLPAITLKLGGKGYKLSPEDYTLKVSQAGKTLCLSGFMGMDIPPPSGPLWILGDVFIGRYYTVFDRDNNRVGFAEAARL

`CC(C)CC(=O)N[C@H](C(=O)N[C@H](C(=O)N[C@@H](CC(C)C)[C@@H](O)CC(=O)N[C@@H](C)C(=O)N[C@@H](CC(C)C)[C@@H](O)CC(=O)O)C(C)C)C(C)C` [pepstatin] (Isovaleryl-VV[Sta]A[Sta]-OH): in test [1], the “inhibition of autodigestion of the cartilage” value is reported as “inhibited virtually completely”.

For `CC(C)c1nc(CN(C)C(=O)N[C@H](C(=O)N[C@@H](Cc2ccccc2)C[C@H](O)[C@H](Cc2ccccc2)NC(=O)OCc2cncs2)C(C)C)cs1` [ritonavir], the “inhibition of autodigestion of the cartilage” value in test [1] is reported as “inhibited virtually completely”.

For `C[C@]12C=CC(=O)C=C1CC[C@H]1[C@@H]3C[C@@H](O)[C@](O)(C(=O)CO)[C@@]3(C)C[C@H](O)[C@@]12F` [TAC, Triamcinolone, reference compound], in test [2], the CAR-induced swelling entry is reported as “capable of reducing the CAR-induced swelling”.

Turning to `CC[C@H](C)[C@H](NC(=O)C[C@H](O)[C@H](Cc1ccccc1)NC(=O)[C@@H](NC(=O)c1cccc(-c2ccccc2)c1)C(C)C)C(=O)N[C@H](C(=O)OCc1ccccc1)C(C)C` [Compound 23, benzly (S)-2-[(2S,3S)-2-((3S,4S)-4-{(S)-2-[(biphenyl-3-carbonyl)-amino]-3-methylbutyrylamino}-3-hydroxy-5-phenylpentanoylamino)-3-methylpentanoylamino]-3-methylbutyrate], the concentration for half-maximal inhibition (IC50) in test [3] was determined as 1.2e-05 M. Also, the CAR-induced swelling entry in test [2] is “exhibited no influence on inflammatory swelling”. Besides, the “thermal hyperalgesia (anti-hyperalgesic action)” value in test [2] (rat, Hargreaves method) was “exerts an anti-hyperalgesic action”.
